Measurements: patent US20260250289A1, “BICYCLIC HETEROCYCLES AND THEIR USE AS WRN INHIBITORS” (Novartis AG, priority 2022, published 2026)

Tests used:
[1] = target: T1, WRN helicase (aa N517-P1238) (Homo sapiens, UniProt Q14191); assay: WRN ATPase assay (DNA dependent ATP hydrolysis, ADP-Glo); type: biochemical; conditions: 3 hours pre-incubation, 300 micromolar ATP, FLAP26 DNA; geometric mean of at least 2
T1 construct: The core helicase motif of the WRN protein (aa N517-P1238) was produced for this assay; His (N); ZZ (N); 3C protease cleavage site (N); made in house; host or cells: Sf21 insect cells (baculovirus; virus and BIICs made in SF9)
T1 sequence (Q14191 517-1238): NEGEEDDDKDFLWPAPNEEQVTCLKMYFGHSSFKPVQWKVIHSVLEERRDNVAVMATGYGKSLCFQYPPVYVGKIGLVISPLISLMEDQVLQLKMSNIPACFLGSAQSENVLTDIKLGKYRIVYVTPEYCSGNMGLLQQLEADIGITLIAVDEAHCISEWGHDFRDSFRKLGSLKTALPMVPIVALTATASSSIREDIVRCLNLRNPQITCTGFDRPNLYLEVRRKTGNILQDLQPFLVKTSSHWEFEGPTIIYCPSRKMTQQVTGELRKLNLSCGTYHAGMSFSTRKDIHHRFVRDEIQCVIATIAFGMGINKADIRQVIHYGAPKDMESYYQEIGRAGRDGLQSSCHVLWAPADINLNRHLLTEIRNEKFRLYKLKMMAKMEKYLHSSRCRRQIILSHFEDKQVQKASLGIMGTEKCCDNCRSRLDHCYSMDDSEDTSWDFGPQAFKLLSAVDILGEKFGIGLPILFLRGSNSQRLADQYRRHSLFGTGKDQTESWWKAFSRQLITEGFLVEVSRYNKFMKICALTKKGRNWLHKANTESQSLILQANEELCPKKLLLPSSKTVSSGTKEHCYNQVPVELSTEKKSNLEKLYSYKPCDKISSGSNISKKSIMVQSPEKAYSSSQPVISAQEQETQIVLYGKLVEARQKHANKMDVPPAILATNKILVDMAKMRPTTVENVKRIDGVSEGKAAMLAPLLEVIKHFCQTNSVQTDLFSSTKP
Summary of the method: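 DNA-dependent ATP hydrolysis detected as ADP by ADP-Glo luminescence, using 300 μM ATP, 0.2 nM FLAP26 substrate and 10 nM WRN aa N517-P1238 (Tris pH 7.5 buffer, 2 mM MgCl2, 50 mM NaCl). IC50s fitted from normalized duplicate half-log dilutions; reported as geometric means of at least 2 replicates.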

[2] = system: SW48 cells; assay: Proliferation assay SW48 (CellTiterGlo); type: cell-based; conditions: Homo sapiens, SW48, 96 h, SW48 colon carcinoma cells, 96 hours, CellTiterGlo; geometric mean of at least 2; read-out: Proliferation Assay SW48 GI50
Summary of the method: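 SW48 cells, 2,000/well, treated after overnight seeding with eight 3-fold compound dilutions (0.1% DMSO) for 96 hours at 37° C. Viability read as ATP by CellTiterGlo luminescence, normalised to a day-0 plate and vehicle to give % growth; GI50 is geometric mean of ≥2 independent replicates.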

[3] = system: DLD1-WRN-KO cells; assay: Proliferation assay DLD1-WRN-KO (CellTiterGlo, off-target effects); type: cell-based; conditions: 96 hours, geometric mean of at least 2
Summary of the method: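 DLD1 cells with CRISPR knockout of WRN were exposed overnight-seeded to eight 3-fold compound dilutions (0.1% DMSO) for 96 h at 37 °C. Viability was read as ATP by CellTiterGlo luminescence against a day-0 plate, giving GI50 and residual viability at top concentration.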

SMILES	IC50 [1] [nM]	GI50 [2] [nM]	GI50 [3] [nM]
CCc1c(N2CCN(C(=O)c3ccc(F)c(F)c3O)CC2)c(=O)n2nc(C3=CCCCO3)nc2n1CC(=O)Nc1ccc(C(F)(F)F)cc1 [Example 39, 2-(6-(4-(3,4-difluoro-2-hydroxybenzoyl)piperazin-1-yl)-2-(3,4-dihydro-2H-pyran-6-yl)-5-ethyl-7-oxo-[1,2,4]triazolo[1,5-a]pyrimidin-4(7H)-yl)-N-(4-(trifluoromethyl)phenyl)acetamide]	30	300	4000
CCc1c(N2CCN(C(=O)c3ccnc(C)c3O)CC2)c(=O)n2nc(C3=CCOCC3)nc2n1CC(=O)Nc1ccc(C(F)(F)F)cc1Cl [Example 49, N-(2-chloro-4-(trifluoromethyl)phenyl)-2-(2-(3,6-dihydro-2H-pyran-4-yl)-5-ethyl-6-(4-(3-hydroxy-2-methylisonicotinoyl)piperazin-1-yl)-7-oxo-[1,2,4]triazolo[1,5-a]pyrimidin-4(7H)-yl)acetamide]	200	500	> 10000
CC(=O)N1CCN(c2c(C)n(CC(=O)Nc3ccc(C(F)(F)F)cc3)c3nc(N4CCC5CC54)nn3c2=O)CC1 (stereo not drawn) [Example 6, 2-(6-(4-acetylpiperazin-1-yl)-2-(2-azabicyclo[3.1.0]hexan-2-yl)-5-methyl-7-oxo-[1,2,4]triazolo[1,5-a]pyrimidin-4(7H)-yl)-N-(4-(trifluoromethyl)phenyl)acetamide]	2000	7000	> 10000
CCc1c(N2CCN(C(=O)c3c(F)ccc(F)c3O)CC2)c(=O)n2nc(C3=CCOCC3)nc2n1CC(=O)Nc1ccc(C(F)(F)F)cc1C [Example 68, 2-(6-(4-(3,6-difluoro-2-hydroxybenzoyl)piperazin-1-yl)-2-(3,6-dihydro-2H-pyran-4-yl)-5-ethyl-7-oxo-[1,2,4]triazolo[1,5-a]pyrimidin-4(7H)-yl)-N-(2-methyl-4-(trifluoromethyl)phenyl)acetamide]	20	100	> 10000
CC(=O)N1CCN(c2c(C)n(CC(=O)Nc3ccc(C(F)(F)F)cc3)c3nc(N4CC5CC5C4)nn3c2=O)CC1 (stereo not drawn) [Example 125, 2-(6-(4-acetylpiperazin-1-yl)-2-(3-azabicyclo[3.1.0]hexan-3-yl)-5-methyl-7-oxo-[1,2,4]triazolo[1,5-a]pyrimidin-4(7H)-yl)-N-(4-(trifluoromethyl)phenyl)acetamide]	800	3000	> 10000
CC(=O)N1CCN(c2c(C)n(CC(=O)Nc3ccc(C(F)(F)F)cc3)c3nc(N4CC=CCC4)nn3c2=O)CC1 [Example 121, 2-(6-(4-acetylpiperazin-1-yl)-2-(3,6-dihydropyridin-1(2H)-yl)-5-methyl-7-oxo-[1,2,4]triazolo[1,5-a]pyrimidin-4(7H)-yl)-N-(4-(trifluoromethyl)phenyl)acetamide]	700	5000	> 10000
CCc1c(N2CCN(C(=O)c3ncc(F)c4cc[nH]c34)CC2)c(=O)n2nc(C3=CCOCC3)nc2n1CC(=O)Nc1ccc(C(F)(F)F)cc1C [Example 51, 2-(2-(3,6-dihydro-2H-pyran-4-yl)-5-ethyl-6-(4-(4-fluoro-1H-pyrrolo[2,3-c]pyridine-7-carbonyl)piperazin-1-yl)-7-oxo-[1,2,4]triazolo[1,5-a]pyrimidin-4(7H)-yl)-N-(2-methyl-4-(trifluoromethyl)phenyl)acetamide]	600	2000	7000
CC(=O)N1CCN(c2c(C)n(CC(=O)Nc3ccc(C(F)(F)F)cc3)c3nc(N4CCCC(F)C4)nn3c2=O)CC1 (stereo not drawn) [Example 1, 2-(6-(4-acetylpiperazin-1-yl)-2-(3-fluoropiperidin-1-yl)-5-methyl-7-oxo-[1,2,4]triazolo[1,5-a]pyrimidin-4(7H)-yl)-N-(4-(trifluoromethyl)phenyl)acetamide]	1000	5000	> 10000
Cc1c(N2CCN(C(=O)c3ncccc3N)CC2)c(=O)n2nc(N3CCOCC3)nc2n1CC(=O)Nc1ccc(C(F)(F)F)cc1 [Example 160, 2-(6-(4-(3-aminopicolinoyl)piperazin-1-yl)-5-methyl-2-morpholino-7-oxo-[1,2,4]triazolo[1,5-a]pyrimidin-4(7H)-yl)-N-(4-(trifluoromethyl)phenyl)acetamide]	600	6000	> 10000
COCC1=CCN(c2nc3n(CC(=O)Nc4ccc(C(F)(F)F)cc4)c(C)c(N4CCN(C(C)=O)CC4)c(=O)n3n2)CC1 [Example 120, 2-(6-(4-acetylpiperazin-1-yl)-2-(4-(methoxymethyl)-3,6-dihydropyridin-1(2H)-yl)-5-methyl-7-oxo-[1,2,4]triazolo[1,5-a]pyrimidin-4(7H)-yl)-N-(4-(trifluoromethyl)phenyl)acetamide]	600	6000	> 10000

The remaining lines, values ahead:

IC50 [1] [nM]	GI50 [2] [nM]	GI50 [3] [nM]	SMILES
80	900	> 10000	CCc1c(N2CCN(C(=O)c3c(O)ccc4nccn34)CC2)c(=O)n2nc(C3=CCOCC3)nc2n1CC(=O)Nc1ccc(C(F)(F)F)cc1C [Example 44, 2-(2-(3,6-dihydro-2H-pyran-4-yl)-5-ethyl-6-(4-(6-hydroxyimidazo[1,2-a]pyridine-5-carbonyl)piperazin-1-yl)-7-oxo-[1,2,4]triazolo[1,5-a]pyrimidin-4(7H)-yl)-N-(2-methyl-4-(trifluoromethyl)phenyl)acetamide]
100	3000	10000	CC(=O)N1CCN(c2c(C)n(CC(=O)Nc3ccc(Cl)cc3)c3nc(-c4ccccc4)nn3c2=O)CC1 [Example 3, 2-(6-(4-acetylpiperazin-1-yl)-5-methyl-7-oxo-2-phenyl-[1,2,4]triazolo[1,5-a]pyrimidin-4(7H)-yl)-N-(4-chlorophenyl)acetamide]
90	200	> 10000	CCc1c(N2CCN(C(=O)c3c(O)ccc4nccn34)CC2)c(=O)n2nc(C3=CCOCC3)nc2n1CC(=O)Nc1ccc(C(F)(F)F)cc1Cl [Example 46, N-(2-chloro-4-(trifluoromethyl)phenyl)-2-(2-(3,6-dihydro-2H-pyran-4-yl)-5-ethyl-6-(4-(6-hydroxyimidazo[1,2-a]pyridine-5-carbonyl)piperazin-1-yl)-7-oxo-[1,2,4]triazolo[1,5-a]pyrimidin-4(7H)-yl)acetamide]
1000	6000	> 10000	CCON1CCN(c2nc3n(CC(=O)Nc4ccc(C(F)(F)F)cc4)c(C)c(N4CCN(C(C)=O)CC4)c(=O)n3n2)CC1 [Example 131, 2-(6-(4-acetylpiperazin-1-yl)-2-(4-ethoxypiperazin-1-yl)-5-methyl-7-oxo-[1,2,4]triazolo[1,5-a]pyrimidin-4(7H)-yl)-N-(4-(trifluoromethyl)phenyl)acetamide]
90	1000	> 10000	Cc1nc2ccccc2c(C(=O)N2CCN(c3c(C)n(CC(=O)Nc4ccc(C(F)(F)F)cc4)c4nc(C5=CCOCC5)nn4c3=O)CC2)c1O [Example 20, 2-(2-(3,6-dihydro-2H-pyran-4-yl)-6-(4-(3-hydroxy-2-methylquinoline-4-carbonyl)piperazin-1-yl)-5-methyl-7-oxo-[1,2,4]triazolo[1,5-a]pyrimidin-4(7H)-yl)-N-(4-(trifluoromethyl)phenyl)acetamide]
